According to patent US12383479B2 (LG HOUSEHOLD & HEALTH CARE LTD., priority 2021, dated 2025):
Converted amounts (≈) assume the structure as drawn.

Experiments:
[1] = Experimental Example 1: solubility of palmitoylethanolamide in each polyol solvent; format: physicochemical; conditions: 25° C. for 24 hours
Excerpt: Polyols representatively used as solvents of cosmetics were chosen, which were propanediol, glycerin, […], 2,3-butanediol, pentylene glycol, dipropylene glycol, propylene glycol, butylene glycol, ethoxydiglycerol, and 1,2-hexanediol.

[2] = Experimental Example 2: solubility of palmitoylethanolamide with combined use of selected solvents and 2,3-butanediol; format: physicochemical; conditions: 1 wt % palmitoylethanolamide, 25° C. for 4 weeks, regardless of weight ratio
[3] = 25° C.; cited from earlier work
[4] = 0.5 wt % and 1 wt % palmitoylethanolamide

solubility in 1,2-hexanediol [1, 4]: good solubility | solubility in pentylene glycol [1, 4]: good solubility | solubility in the remaining polyols ([1]; propanediol, glycerin, ethanol, 2,3-butanediol, dipropylene glycol, propylene glycol, butylene glycol, ethoxydiglycerol, 0.5 and 1 wt %): precipitation | solubility in 1,2-hexanediol combined with 2,3-butanediol [2]: dissolved | solubility in pentylene glycol combined with 2,3-butanediol [2]: dissolved
Compound: CCCCCCCCCCCCCCCC(=O)NCCO [palmitoylethanolamide, N-(2-hydroxyethyl)hexadecanamide]
water solubility [3]: 0.4431 µg/mL (≈ 1.48 µM)
